ChEMBL document CHEMBL5096171, “Synthesis and Biological Evaluation of PSMA Ligands with Aromatic Residues and Fluorescent Conjugates Based on Them” (J Med Chem, 2021)

Key:
[1] = Cytotoxicity against HEK293T cells assessed as cell growth inhibition incubated for 5 days by MTT assay; format: toxicity, cell-based, HEK-293T; conditions: human, time 5 day
[2] = molecular target: Glutamate carboxypeptidase 2 (Homo sapiens, UniProt Q04609); assay: Inhibition of PSMA derived from human LNCaP cell lysate assessed as inhibition of NAAG hydrolysis incubated for 2 hrs in presence of NAAG by Amplex Red assay; format: subcellular
Sequence of Glutamate carboxypeptidase 2 (Q04609 whole entry): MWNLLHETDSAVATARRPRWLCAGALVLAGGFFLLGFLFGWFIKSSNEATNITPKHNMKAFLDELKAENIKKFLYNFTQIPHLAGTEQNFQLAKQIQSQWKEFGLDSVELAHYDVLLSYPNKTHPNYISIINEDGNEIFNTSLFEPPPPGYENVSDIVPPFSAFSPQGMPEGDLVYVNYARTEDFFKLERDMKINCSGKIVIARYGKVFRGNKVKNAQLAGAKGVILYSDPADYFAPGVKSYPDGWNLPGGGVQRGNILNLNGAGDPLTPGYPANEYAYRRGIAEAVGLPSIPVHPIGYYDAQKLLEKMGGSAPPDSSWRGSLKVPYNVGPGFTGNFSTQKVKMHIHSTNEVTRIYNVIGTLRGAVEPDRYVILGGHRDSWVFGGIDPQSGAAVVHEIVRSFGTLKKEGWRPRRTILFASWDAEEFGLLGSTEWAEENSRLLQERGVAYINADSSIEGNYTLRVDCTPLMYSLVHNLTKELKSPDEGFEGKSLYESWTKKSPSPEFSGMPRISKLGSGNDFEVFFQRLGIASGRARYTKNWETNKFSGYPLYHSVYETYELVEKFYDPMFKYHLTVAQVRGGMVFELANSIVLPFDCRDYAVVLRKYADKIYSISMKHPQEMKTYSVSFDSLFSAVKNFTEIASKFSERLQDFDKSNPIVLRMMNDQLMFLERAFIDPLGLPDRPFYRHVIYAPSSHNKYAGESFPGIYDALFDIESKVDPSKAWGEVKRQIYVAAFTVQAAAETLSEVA

[3] = Cytotoxicity against human WI-38 VA13 cells assessed as cell growth inhibition incubated for 5 days by MTT assay; format: toxicity, cell-based; conditions: time 5 day
MCF7 = assay: Cytotoxicity against human MCF7 cells assessed as cell growth inhibition incubated for 5 days by MTT assay; format: functional; conditions: MCF7, 120 h, time 5 day
A549 = assay: Cytotoxicity against human A549 cells assessed as cell growth inhibition incubated for 5 days by MTT assay; format: functional; conditions: A549, 120 h, time 5 day
[4] = Drug uptake in human LNCaP cells assessed as drug accumulation by measuring fluorescence signal at 4 uM incubated for 30 mins by flow cytometry; format: ADME, cell-based; conditions: 0.5 h
[5] = Drug uptake in human 22Rv1 cells assessed as drug accumulation by measuring fluorescence signal at 4 uM incubated for 30 mins by flow cytometry; format: ADME, cell-based; conditions: cwr22r, 0.5 h
[6] = Drug uptake in human PC-3 cells assessed as drug accumulation by measuring fluorescence signal at 4 uM incubated for 30 mins by flow cytometry; format: ADME, cell-based; conditions: pc-3, 0.5 h
LNCaP = assay: Cytotoxicity against human LNCaP cells assessed as reduction in cell viability incubated for 5 days by MTT assay; format: functional; conditions: 120 h, time 5 day
PC-3 = assay: Cytotoxicity against human PC-3 cells assessed as reduction in cell viability incubated for 5 days by MTT assay; format: functional; conditions: PC-3, 120 h, time 5 day
[7] = Chronic toxicity in Soviet Chinchilla rabbit assessed as change in blood albumin content at 120 to 243 mg/kg, iv administered once every 3 weeks; format: organism-based, Oryctolagus cuniculus; conditions: in vivo, 504 h, dose 120-243 mg/kg
[8] = Chronic toxicity in Soviet Chinchilla rabbit assessed as signs of intoxication at 120 to 243 mg/kg, iv administered once every 3 weeks; format: organism-based, Oryctolagus cuniculus; conditions: in vivo, 504 h, dose 120-243 mg/kg
[9] = Chronic toxicity in Soviet Chinchilla rabbit assessed as change in brain histology at 120 to 243 mg/kg, iv administered once every 3 weeks; format: organism-based, Oryctolagus cuniculus; conditions: in vivo, 504 h, dose 120-243 mg/kg
[10] = Chronic toxicity in Soviet Chinchilla rabbit assessed as change in heart histology at 120 to 243 mg/kg, iv administered once every 3 weeks; format: organism-based, Oryctolagus cuniculus; conditions: in vivo, 504 h, dose 120-243 mg/kg
[11] = Chronic toxicity in Soviet Chinchilla rabbit assessed as change in lung histology at 120 to 243 mg/kg, iv administered once every 3 weeks; format: organism-based, Oryctolagus cuniculus; conditions: in vivo, 504 h, dose 120-243 mg/kg
[12] = Chronic toxicity in Soviet Chinchilla rabbit assessed as change in liver histology at 120 to 243 mg/kg, iv administered once every 3 weeks; format: organism-based, Oryctolagus cuniculus; conditions: in vivo, 504 h, dose 120-243 mg/kg
[13] = Chronic toxicity in Soviet Chinchilla rabbit assessed as change in kidney histology at 120 to 243 mg/kg, iv administered once every 3 weeks; format: organism-based, Oryctolagus cuniculus; conditions: in vivo, 504 h, dose 120-243 mg/kg
[14] = Chronic toxicity in Soviet Chinchilla rabbit assessed as change in spleen histology at 120 to 243 mg/kg, iv administered once every 3 weeks; format: organism-based, Oryctolagus cuniculus; conditions: in vivo, 504 h, dose 120-243 mg/kg

SMILES	CC50 at 120 h [1] [µM]	IC50 [2] [µM]	CC50 at 120 h [3] [µM]	CC50 (MCF7) [µM]	CC50 (A549) [µM]	further results
[N-]=[N+]=NCCCNC(=O)[C@H](Cc1ccccc1)NC(=O)[C@H](Cc1ccccc1)NC(=O)CCC(=O)NCCCCCC(=O)N(CCCC[C@H](NC(=O)N[C@@H](CCC(=O)O)C(=O)O)C(=O)O)Cc1ccc(Cl)cc1F	> 100	0.043	> 100	> 100	> 100	–
[N-]=[N+]=NCCCNC(=O)[C@H](Cc1ccccc1)NC(=O)[C@H](Cc1ccccc1)NC(=O)CCC(=O)NCCCCCC(=O)NCCCC[C@H](NC(=O)N[C@@H](CCC(=O)O)C(=O)O)C(=O)O	62	–	> 100	> 100	> 100	–
[N-]=[N+]=NCCCNC(=O)[C@@H](Cc1ccccc1)NC(=O)[C@@H](Cc1ccccc1)NC(=O)CCC(=O)NCCCCCC(=O)N(CCCC[C@H](NC(=O)N[C@@H](CCC(=O)O)C(=O)O)C(=O)O)Cc1ccc(Cl)c(F)c1	51	0.294	> 100	> 100	> 100	–
[N-]=[N+]=NCCCNC(=O)[C@H](Cc1ccccc1)NC(=O)[C@H](Cc1ccccc1)NC(=O)CCC(=O)NCCCCCC(=O)N(CCCC[C@H](NC(=O)N[C@@H](CCC(=O)O)C(=O)O)C(=O)O)Cc1ccc(Br)cc1	> 100	0.05	> 100	> 100	> 100	–
[N-]=[N+]=NCCCNC(=O)[C@@H](Cc1ccc(O)cc1)NC(=O)[C@@H](Cc1ccccc1)NC(=O)CCC(=O)NCCCCCC(=O)N(CCCC[C@H](NC(=O)N[C@@H](CCC(=O)O)C(=O)O)C(=O)O)Cc1cccc(Cl)c1	–	0.107	–	–	–	–
[N-]=[N+]=NCCCNC(=O)[C@H](Cc1ccccc1)NC(=O)[C@H](Cc1ccccc1)NC(=O)CCC(=O)NCCCCCC(=O)N(CCCC[C@H](NC(=O)N[C@@H](CCC(=O)O)C(=O)O)C(=O)O)Cc1cccc(Cl)c1	–	0.038	–	–	–	–
[N-]=[N+]=NCCCNC(=O)[C@@H](Cc1ccc(O)cc1)NC(=O)[C@@H](Cc1ccccc1)NC(=O)CCC(=O)NCCCCCC(=O)N(CCCC[C@H](NC(=O)N[C@@H](CCC(=O)O)C(=O)O)C(=O)O)Cc1ccc(Cl)cc1	–	0.027	–	–	–	–
[N-]=[N+]=NCCCNC(=O)[C@H](Cc1ccccc1)NC(=O)[C@H](Cc1ccccc1)NC(=O)CCC(=O)NCCCCCC(=O)N(CCCC[C@H](NC(=O)N[C@@H](CCC(=O)O)C(=O)O)C(=O)O)Cc1ccc(Cl)cc1	–	0.055	–	–	–	–
[N-]=[N+]=NCCCNC(=O)[C@@H](Cc1ccc(O)c(Br)c1)NC(=O)[C@@H](Cc1ccccc1)NC(=O)CCC(=O)NCCCCCC(=O)N(CCCC[C@H](NC(=O)N[C@@H](CCC(=O)O)C(=O)O)C(=O)O)Cc1cccc(Cl)c1	–	0.08	–	–	–	–
[N-]=[N+]=NCCCNC(=O)[C@@H](Cc1ccc(O)c(Br)c1)NC(=O)[C@@H](Cc1ccccc1)NC(=O)CCC(=O)NCCCCCC(=O)N(CCCC[C@H](NC(=O)N[C@@H](CCC(=O)O)C(=O)O)C(=O)O)Cc1ccc(Br)cc1	–	0.089	–	–	–	–
[N-]=[N+]=NCCCNC(=O)[C@@H](Cc1ccc(O)cc1)NC(=O)[C@@H](Cc1ccccc1)NC(=O)CCC(=O)NCCCCCC(=O)N(CCCC[C@H](NC(=O)N[C@@H](CCC(=O)O)C(=O)O)C(=O)O)Cc1ccc(Br)cc1	–	3.16	–	–	–	–
[N-]=[N+]=NCCCNC(=O)[C@H](Cc1ccc(O)cc1)NC(=O)[C@H](Cc1ccccc1)NC(=O)CCC(=O)NCCCCCC(=O)N(CCCC[C@H](NC(=O)N[C@@H](CCC(=O)O)C(=O)O)C(=O)O)Cc1ccc(Br)cc1	> 100	0.017	> 100	> 100	> 100	–
[N-]=[N+]=NCCCNC(=O)[C@H](Cc1ccc(O)cc1)NC(=O)[C@H](Cc1ccccc1)NC(=O)CCC(=O)NCCCCCC(=O)N(CCCC[C@H](NC(=O)N[C@@H](CCC(=O)O)C(=O)O)C(=O)O)Cc1ccc(Cl)c(F)c1	> 100	0.062	> 100	> 100	> 100	–
[N-]=[N+]=NCCCNC(=O)[C@@H](Cc1ccccc1)NC(=O)[C@@H](Cc1ccccc1)NC(=O)CCC(=O)NCCCCCC(=O)N(CCCC[C@H](NC(=O)N[C@@H](CCC(=O)O)C(=O)O)C(=O)O)Cc1ccc(Cl)cc1	–	0.226	–	–	–	–
[N-]=[N+]=NCCCNC(=O)[C@@H](Cc1ccccc1)NC(=O)[C@@H](Cc1ccccc1)NC(=O)CCC(=O)NCCCCCC(=O)N(CCCC[C@H](NC(=O)N[C@@H](CCC(=O)O)C(=O)O)C(=O)O)Cc1cccc(Cl)c1	–	0.046	–	–	–	–
[N-]=[N+]=NCCCNC(=O)[C@H](Cc1ccc(O)cc1)NC(=O)[C@H](Cc1ccccc1)NC(=O)CCC(=O)NCCCCCC(=O)N(CCCC[C@H](NC(=O)N[C@@H](CCC(=O)O)C(=O)O)C(=O)O)Cc1ccc(Cl)cc1	–	0.046	–	–	–	–
NCCCC[C@H](NC(=O)N[C@@H](CCC(=O)O)C(=O)O)C(=O)O	> 100	–	> 100	> 100	> 100	–
[N-]=[N+]=NCCCNC(=O)[C@@H](Cc1ccccc1)NC(=O)[C@@H](Cc1ccccc1)NC(=O)CCC(=O)NCCCCCC(=O)N(CCCC[C@H](NC(=O)N[C@@H](CCC(=O)O)C(=O)O)C(=O)O)Cc1ccc(Br)cc1	88	0.319	> 100	> 100	> 100	–
CN1/C(=C/C=C/C=C/C2=[N+](CCCCCC(=O)O)c3ccc(S(=O)(=O)[O-])cc3C2(C)C)C(C)(C)c2cc(S(=O)(=O)O)ccc21	–	–	–	–	–	Drug uptake [4]: 98.4%; Drug uptake [5]: 57.5%; Drug uptake [6]: 41.1%; CC50 (LNCaP): > 100 µM; CC50 (PC-3): > 100 µM
[N-]=[N+]=NCCCNC(=O)[C@H](Cc1ccc(O)cc1)NC(=O)[C@H](Cc1ccccc1)NC(=O)CCC(=O)NCCCCCC(=O)N(CCCC[C@H](NC(=O)N[C@@H](CCC(=O)O)C(=O)O)C(=O)O)Cc1cccc(Cl)c1	> 100	0.003	> 100	> 100	> 100	Ki [2]: 0.001 µM; CC50 (LNCaP): > 100 µM; CC50 (PC-3): > 100 µM
CN1/C(=C/C=C2C=C(/C=C/C3=[N+](CCCCCC(=O)O)c4ccc(S(=O)(=O)[O-])cc4C3(C)C)CCC/2)C(C)(C)c2cc(S(=O)(=O)O)ccc21	–	–	–	–	–	CC50 (LNCaP): > 100 µM; CC50 (PC-3): > 100 µM; Activity [7]: Toxic; Activity [8]: Non-Toxic; Activity [9]: Non-Toxic; Activity [10]: Non-Toxic; Activity [11]: Non-Toxic; Activity [12]: Non-Toxic; Activity [13]: Non-Toxic; Activity [14]: Non-Toxic
[N-]=[N+]=NCCCNC(=O)[C@H](Cc1ccccc1)NC(=O)[C@H](Cc1ccccc1)NC(=O)CCC(=O)NCCCC(=O)N(CCCC[C@H](NC(=O)N[C@@H](CCC(=O)O)C(=O)O)C(=O)O)Cc1ccccc1	> 100	0.175	> 100	> 100	> 100	–
[N-]=[N+]=NCCCNC(=O)[C@H](Cc1ccccc1)NC(=O)[C@H](Cc1ccccc1)NC(=O)CCC(=O)NCCCCCC(=O)N(CCCC[C@H](NC(=O)N[C@@H](CCC(=O)O)C(=O)O)C(=O)O)Cc1ccc(Cl)c(F)c1	71	0.063	> 100	> 100	> 100	–
[N-]=[N+]=NCCCNC(=O)[C@@H](Cc1ccc(O)cc1)NC(=O)[C@@H](Cc1ccccc1)NC(=O)CCC(=O)NCCCCCC(=O)N(CCCC[C@H](NC(=O)N[C@@H](CCC(=O)O)C(=O)O)C(=O)O)Cc1ccc(Cl)c(F)c1	–	0.108	–	–	–	–
[N-]=[N+]=NCCCNC(=O)[C@H](Cc1ccccc1)NC(=O)[C@H](Cc1ccccc1)NC(=O)CCC(=O)NCCCCCC(=O)N(CCCC[C@H](NC(=O)N[C@@H](CCC(=O)O)C(=O)O)C(=O)O)Cc1ccccc1	114	0.028	> 100	> 100	> 100	–
